Assays:
[1] = system: MDA MB 231 cells; details: 10 μM, 48 hours
Description: (§2) After 48 hours, cells were harvested and stained with the following antibodies: HLA A2-PE-Cy7, MUC-1-FITC, CD54-BV421, CD95-FITC (BD Biosciences, San Jose, Calif.), CEA-APC (Miltenyi Biotec, Auburn, Calif.), TRAIL receptor 1 and TRAIL receptor 2 (R & D Systems, Minneapolis, Minn.). LIVE/DEAD Fixable Violet Dead Cell Stain (Life Technologies, Grand Island, N.Y.) was used to determine cell viability. Cells were incubated with the antibodies for 30 min at 4° C., acquired on a FACS Verse flow cytometer (Becton Dickinson, Franklin Lakes, N.J.), and analyzed using FlowJo software (TreeStar, Inc., Ashland, Oreg.).

[2] = system: LNCaP cells; experiment: CEA- or PSA-specific CD8+ T-cell killing, LNCaP targets; assay type: cell-based, human; details: 10 μM, 48 hours, P<0.01
[3] = system: NAIP; experiment: NAIP immunohistochemistry in PC-3 xenografts in nude mice; assay type: in vivo; details: 10 mg/day, 7 days
Source text: (§1) To examine the reduced expression of NAIP in vivo, either LNCaP or PC-3 cells were transplanted into […] nude mice (Charles River, Wilmington, Mass.) (s.c. in the right flank with 5×10^6 LNCaP or PC-3 prostate tumor cells). […] After 7 days of treatment, tumors were subjected to immunohistochemistry staining to detect the presence and intensity of NAIP expression. Specifically, NAIP expression was detected via immunohistochemistry using a rabbit polyclonal antibody to NAIP (Novus Bio, Littleton, Colo.) according to the manufacturer's instructions. Entire slides were digitally scanned by an Aperio ScanScope CS system and analyzed by Aperio ImageScope Viewer software (Aperio Technologies Inc., Vista, Calif.). Statistical analysis was performed using 3-7 murine tumors, each prepared as a complete stained tumor section. Positive tumor regions were determined using the Positive Pixel Count v9 algorithm. Negative controls included omission of primary antibody with PBS and matched rabbit isotype antibody. In all cases, necrotic areas of tumor were excluded from analysis.

[4] = system: LNCaP control-shRNA (AR+, HLA-A2) cells; details: 10 μM; P<0.01
[5] = system: NAIP; experiment: NAIP immunohistochemistry in LNCaP xenografts in nude mice; assay type: in vivo; details: 10 mg/day, 7 days
Source text: as §1

[6] = system: BT549 (ER−AR+) cells; experiment: Tumor cell proliferation, BT549; assay type: cell-based, human; details: 10 μM; 48 or 72 hours; P<0.01 vs vehicle; to a greater degree than ZR75-1
Description: At the indicated time points, cells were harvested and the number of viable cells was determined by trypan blue exclusion.

[7] = system: OPG; experiment: ELISA of secreted OPG, MDA MB 231 cells; assay type: cell-based, human; details: 10 μM, 48 hours, P<0.05
Description: ELISA was performed on combined supernatant samples taken following 24 and 48 hours of treatment.
OPG expression was inhibited in MDA MB 231 cells using siRNA duplexes targeting OPG sequences and control siRNA duplexes (Origene, Rockville, Md.). MDA-MB-231 cells were transfected with OPG or control siRNA according to the manufacturer's instructions. […] Forty-eight hours post siRNA transfection, the MDA MB 231 cells were also used as target cells in CEA-specific CTL and TRAIL-mediated lysis assays as described.

[8] = system: LNCaP cells; experiment: Apoptosis PCR array (96 genes) in LNCaP cells; assay type: cell-based, human
Description: The properties of ADT that induce immunogenic modulation and sensitize prostate tumor cells to immune-mediated attack are novel and have not been previously described. It was hypothesized that modulation of apoptotic genes might be part of the mechanism of action of ADT-induced CTL sensitization. […] In particular, gene expression was assessed using an apoptosis PCR array (SA Biosciences, Valencia, Calif.) as per the manufacturer's instructions. RT-PCR was performed on the 7300 Real-Time PCR System (Applied Biosystems, Carlsbad, Calif.). Where indicated, values were calculated as expression relative to GAPDH, as previously described (Ardiani et al., Cancer Res., 74(7): 1945-1957 (2014))

[9] = system: BT549 cells; details: 10 μM, 48 hours
Description: as §2

[10] = system: ZR75-1 cells; details: 10 μM, 48 hours
Description: as §2

[11] = apoptosis PCR array, negative = down-regulated

enzalutamide
cell-surface markers with increased expression ([1]; MDA MB 231 (ER−AR−)): upregulated CEA, ICAM-1 and Trail receptors 1/2 | CEA mean fluorescence intensity ([1]; MDA MB 231): 626 | CEA percent positivity ([1]; MDA MB 231): 9.7% | Fas mean fluorescence intensity ([1]; MDA MB 231): 375 | Fas percent positivity ([1]; MDA MB 231): 9.0% | HLA A2 mean fluorescence intensity ([1]; MDA MB 231): 21175 | HLA A2 percent positivity ([1]; MDA MB 231): 96.4% | ICAM-1 mean fluorescence intensity ([1]; MDA MB 231): 7254 | ICAM-1 percent positivity ([1]; MDA MB 231): 95.3% | MUC-1 mean fluorescence intensity ([1]; MDA MB 231): 503 | Trail R1 mean fluorescence intensity ([1]; MDA MB 231): 1125 | Trail R1 percent positivity ([1]; MDA MB 231): 19.2% | Trail R2 mean fluorescence intensity ([1]; MDA MB 231): 1516 | sensitivity to T-cell killing [2]: significantly improved the cells' sensitivity | NAIP expression in PC-3 tumors vs untreated [3]: did not mediate significant changes in NAIP expression | proliferation of LNCaP control-shRNA [4]: significantly inhibited the proliferation | NAIP staining in LNCaP tumors vs untreated mice ([5]; immunohistochemistry): much less intense staining | decrease of overall population of tumor cells expressing NAIP ([5]; LNCaP xenografts, P<0.01): 1.5 fold | increase in tumor area that did not express NAIP ([5]; LNCaP xenografts, P<0.01): 2.2 fold | proliferation of BT549 cells [6]: significantly inhibited the proliferation | amount of secreted OPG [7]: reduced the amount of OPG | CASP1 (Caspase 1) gene expression change [8, 11]: −2.17 fold | CASP5 gene expression change [8, 11]: −3.50 fold | CASP8 gene expression change [8, 11]: −2.96 fold | CD27 gene expression change [8, 11]: −2.26 fold | DAPK1 gene expression change [8, 11]: −6.53 fold | HRK gene expression change [8, 11]: −2.86 fold | NAIP gene expression change [8, 11]: −13.90 fold | TNFRSF25 (DR3) gene expression change [8, 11]: −3.70 fold | TNFSF8 gene expression change [8, 11]: −3.50 fold | DAPK1 down-regulated ([8]; rounded from Table 1): 6.5 fold | NAIP down-regulated ([8]; rounded from Table 1): 14 fold | cell-surface markers with increased expression ([9]; BT549 (ER−AR+)): upregulated the expression of ICAM-1 as well as Trail receptors 1 and 2 and the tumor associated antigen CEA | CEA mean fluorescence intensity ([9]; BT549): 3443 | CEA percent positivity ([9]; BT549): 15.3% | Fas mean fluorescence intensity ([9]; BT549): 566 | Fas percent positivity ([9]; BT549): 15.8% | HLA A2 mean fluorescence intensity ([9]; BT549): 2532 | HLA A2 percent positivity ([9]; BT549): 87.6% | ICAM-1 mean fluorescence intensity ([9]; BT549): 6239 | ICAM-1 percent positivity ([9]; BT549): 26.1% | MUC-1 mean fluorescence intensity ([9]; BT549): 930 | MUC-1 percent positivity ([9]; BT549): 25.5% | Trail R1 mean fluorescence intensity ([9]; BT549): 562 | Trail R1 percent positivity ([9]; BT549): 23.6% | CEA mean fluorescence intensity [10]: 4690 | CEA percent positivity [10]: 28.9% | Fas mean fluorescence intensity [10]: 1611 | Fas percent positivity [10]: 26.8% | HLA A2 mean fluorescence intensity [10]: 3047 | HLA A2 percent positivity [10]: 10.0% | ICAM-1 mean fluorescence intensity [10]: 2473 | ICAM-1 percent positivity [10]: 26.1% | MUC-1 mean fluorescence intensity [10]: 2203 | MUC-1 percent positivity [10]: 37.1% | Trail R1 mean fluorescence intensity [10]: 4325 | Trail R1 percent positivity [10]: 7.9% | Trail R2 mean fluorescence intensity [10]: 4502

— US20170306042A1, “IMMUNOGENIC MODULATION BY ENDOCRINE DEPRIVATION THERAPY IMPROVES SENSITIVITY OF TUMOR CELLS TO IMMUNE MEDIATED LYSIS” (The United States of America, as represented by the …, priority 2014, published 2017)
